Laboratory results taken from patent US8710062B2, “Piperazinedione compounds” (Taipei Medical University, priority 2011, dated 2014).
Counter-ions that a name gives are not always drawn.

tested on: 60 Human Cancer Cell Lines (NCI-60); conditions: data obtained from the NCI/DTP database (asterisk); cited from earlier work

| SMILES | pIC50 |
| --- | --- |
| C#Cc1cccc(Nc2ncnc3cc(OCCOC)c(OCCOC)cc23)c1 [Tarceva] | 5.26 |
| CCN(CC)CCNC(=O)c1c(C)[nH]c(/C=C2\C(=O)Nc3ccc(F)cc32)c1C [Sutent] | 5.71 |
| CN(Cc1cnc2nc(N)nc(N)c2n1)c1ccc(C(=O)N[C@@H](CCC(=O)O)C(=O)O)cc1 [MTX] | 6.95 |
| CCc1c2c(nc3ccc(OC(=O)N4CCC(N5CCCCC5)CC4)cc13)-c1cc3c(c(=O)n1C2)COC(=O)[C@]3(O)CC [irinotecan] | 4.85 |
| O=c1[nH]cc(F)c(=O)[nH]1 [Compound 5-FU, 5-FU] | 4.76 |
| O=C1[O][Pt]2([NH][C@@H]3CCCC[C@H]3[NH]2)[O]C1=O [eloxatin] | 5.65 |
| Nc1nc2[nH]cc(CCc3ccc(C(=O)N[C@@H](CCC(=O)O)C(=O)O)cc3)c2c(=O)[nH]1 [Alimta] | 4.97 |
| CNC(=O)c1cc(Oc2ccc(NC(=O)Nc3ccc(Cl)c(C(F)(F)F)c3)cc2)ccn1 [Mexavar] | 5.73 |
| Nc1ccn([C@@H]2O[C@H](CO)[C@@H](O)C2(F)F)c(=O)n1 [Gemcitabine] | 6.82 |
| COc1cc2ncnc(Nc3ccc(F)c(Cl)c3)c2cc1OCCCN1CCOCC1 [Irressa] | 5.49 |
| CC(=O)O[C@H]1C(=O)[C@@]2(C)[C@H]([C@H](OC(=O)c3ccccc3)[C@]3(O)C[C@H](OC(=O)[C@H](O)[C@@H](NC(=O)c4ccccc4)c4ccccc4)C(C)=C1C3(C)C)[C@]1(OC(C)=O)CO[C@@H]1C[C@@H]2O [taxol] | 7.84 |
| CC(=O)O[C@@]12CO[C@@H]1C[C@H](O)[C@@]1(C)C(=O)[C@H](O)C3=C(C)[C@@H](OC(=O)[C@H](O)[C@@H](NC(=O)OC(C)(C)C)c4ccccc4)C[C@@](O)([C@@H](OC(=O)c4ccccc4)[C@H]21)C3(C)C [docetxel] | 7.66 |

tested on: not given; conditions: not given

| melting point | SMILES |
| --- | --- |
| 288 to 289 °C | O=c1[nH]/c(=C\c2cccs2)c(=O)[nH]/c1=C\c1ccc2ccccc2n1 [Compound 24, 3-(quinolin-2-ylmethylene)-6-(thiophen-2-ylmethylene)piperazine-2,5-dione] |
| 312 to 314 °C | NC(Cc1ccc(O)cc1)C(=O)Oc1ccc(/C=c2\[nH]c(=O)/c(=C/c3ccccc3)[nH]c2=O)nc1 (stereo not shown) (as salt: trifluoroacetate) [Compound 12, 1-(6-((Z)—((Z)-5-benzylidene-3,6-dioxopiperazin-2-ylidene)methyl)pyridin-3-yloxy)-3-(4-hydroxyphenyl)-1-oxopropan-2-aminium 2,2,2-trifluoroacetate] |
| 326 °C (dec.) | O=c1[nH]/c(=C\c2ccc(OCCO)cn2)c(=O)n(CCO)/c1=C\c1ccccc1 [Compound 18, 6-benzylidene-3-((5-(2-hydroxyethoxy)pyridin-2-yl)methylene)-1-(2-hydroxyethyl)piperazine-2,5-dione] |
| 286 °C (dec.) | CN(C)CCCOc1cccc(/C=c2\[nH]c(=O)/c(=C/c3ccc(OCc4ccccc4)cn3)[nH]c2=O)c1 [Compound 17, 3-((5-(benzyloxy)pyridin-2-yl)methylene)-6-(3-(3-(dimethylamino)propoxy)benzylidene)piperazine-2,5-dione] |
| 285 to 286 °C | NC(Cc1ccccc1)C(=O)Oc1ccc(/C=c2\[nH]c(=O)/c(=C/c3ccccc3)[nH]c2=O)nc1 (stereo not shown) (as salt: trifluoroacetate) [Compound 11, 1-(6-((Z)—((Z)-5-benzylidene-3,6-dioxopiperazin-2-ylidene)methyl)-pyridin-3-yloxy)-1-oxo-3-phenylpropan-2-aminium 2,2,2-trifluoroacetate] |
| 266 to 267 °C | O=c1[nH]/c(=C\c2ccc(OCc3ccccn3)cn2)c(=O)[nH]/c1=C\c1ccccc1 (as salt: sulfonic acid salt) [Compound 4, 3-benzylidene-6-((5-(pyridin-2-ylmethoxy)pyridin-2-yl)methylene)piperazine-2,5-dione methanesulfonic acid salt] |
| 319 to 320 °C | O=c1[nH]/c(=C\c2ccc3ccccc3n2)c(=O)[nH]/c1=C\c1ccc(F)cc1 [Compound 22, 3-(4-fluorobenzylidene)-6-(quinolin-2-ylmethylene)piperazine-2,5-dione] |
| 348 to 349 °C | O=c1[nH]/c(=C\c2ccc3ccccc3n2)c(=O)[nH]/c1=C\c1ccc(Cl)cc1 [Compound 23, 3-(4-chlorobenzylidene)-6-(quinolin-2-ylmethylene)piperazine-2,5-dione] |
| 284 °C (dec.) | O=c1[nH]/c(=C\c2ccc(OCc3ccncc3)cn2)c(=O)n(Cc2ccncc2)/c1=C\c1ccccc1 [Compound 14, (3Z,6Z)-6-benzylidene-3-((5-(pyridin-4-ylmethoxy)pyridin-2-yl)meth-ylene)-1-(pyridin-4-ylmethyl)piperazine-2,5-dione] |
| 374 to 375 °C | O=c1[nH]/c(=C\c2ccnc3ccccc23)c(=O)[nH]/c1=C\c1ccnc2ccccc12 [Compound 26, 3,6-bis(quinolin-4-ylmethylene)piperazine-2,5-dione] |
| 262 to 263 °C | CC(=O)N1CC(=O)N/C(=C\c2ccc3ccccc3n2)C1=O [Compound 19, 1-acetyl-3-(quinolin-2-ylmethylene)piperazine-2,5-dione] |
| 305 to 306 °C | O=c1[nH]/c(=C\c2ccc3ccccc3n2)c(=O)[nH]/c1=C\c1cccnc1 [Compound 21, 3-(pyridin-3-ylmethylene)-6-(quinolin-2-ylmethylene)piperazine-2,5-dione] |
| 280 °C | NC(C(=O)Oc1ccc(/C=c2\[nH]c(=O)/c(=C/c3ccccc3)[nH]c2=O)nc1)c1ccccc1 (stereo not shown) (as salt: trifluoroacetate) [Compound 9, 2-(6-((Z)—((Z)-5-benzylidene-3,6-dioxopiperazin-2-ylidene)methyl)py-ridin-3-yloxy)-2-oxo-1-phenylethanaminium 2,2,2-trifluoroacetate] |
| 234 to 235 °C | CN1CCN(C(=O)Oc2ccc(/C=c3\[nH]c(=O)/c(=C/c4ccccc4)[nH]c3=O)nc2)CC1 [Compound 6, 6-((Z)—((Z)-5-benzylidene-3,6-dioxopiperazin-2-ylidene)methyl)pyridin-3-yl-4-methylpiperazine-1-carboxylate] |
| 228 to 230 °C | O=c1[nH]/c(=C\c2ccc(OCc3cccnc3)cn2)c(=O)[nH]/c1=C\c1ccccc1 (as salt: sulfonic acid salt) [Compound 3, 3-benzylidene-6-((5-(pyridin-3-ylmethoxy)pyridin-2-yl)methylene)piperazine-2,5-dione methanesulfonic acid salt] |
| 261 to 262 °C | CC(=O)N1CC(=O)N/C(=C\c2cnc3ccccc3c2)C1=O [Compound 27, 1-acetyl-3-(quinolin-3-ylmethylene)piperazine-2,5-dione] |
| 374 to 375 °C | O=c1[nH]/c(=C\c2ccc3ccccc3n2)c(=O)[nH]/c1=C\c1ccc2ccccc2n1 [Compound 20, 3,6-bis(quinolin-2-ylmethylene)piperazine-2,5-dione] |

| SMILES | melting point |
| --- | --- |
| CC(C)(C)OC(=O)NC(Cc1ccccc1)C(=O)Oc1ccc(/C=c2\[nH]c(=O)/c(=C/c3ccccc3)[nH]c2=O)nc1 (stereo not shown) [Compound 10, 6-((Z)—((Z)-5-benzylidene-3,6-dioxopiperazin-2-ylidene)methyl)pyridin-3-yl 2-(tert-butoxycarbonylamino)-3-phenylpropanoate] | 188 °C |
| CC(C)(C)OC(=O)NC(Cc1ccc(OC(C)(C)C)cc1)C(=O)Oc1ccc(/C=c2\[nH]c(=O)/c(=C/c3ccccc3)[nH]c2=O)nc1 (stereo not shown) [Compound 13, 6-((Z)—((Z)-5-benzylidene-3,6-dioxopiperazin-2-ylidene)methyl)pyridin-3-yl-2-(tert-butoxycarbonylamino)-3-(4-tert-butoxyphenyl)propanoate] | 210 to 212 °C |
